Measurements: publication PMC7044277 (Nature Communications, 2020)
“And” between values parts separate entries of the source, which are not always exact repeats. Equal entries are not always repeated.

Experiments:
Type in all cases: cell-based
320 non-olfactory GPCRs [1] = target: T1, 320 non-olfactory GPCRs (Homo sapiens, UniProt O00398); conditions: receptor P2RY10; replicate values, Fig_4g
T1 construct: expressed in transfected cells; host or cells: HTLA cells

320 non-olfactory GPCRs [2] = target: 320 non-olfactory GPCRs (Homo sapiens, UniProt P43220)
320 non-olfactory GPCRs [3] = target: T2, 320 non-olfactory GPCRs (Homo sapiens, UniProt P48145); conditions: receptor NPBW1; replicate values, Fig_4g
T2 construct: expressed in transfected cells; host or cells: HTLA cells

320 non-olfactory GPCRs [4] = target: T3, 320 non-olfactory GPCRs (Homo sapiens, UniProt Q9Y5X5); conditions: receptor NPFF2; replicate values, Fig_4g
T3 construct: expressed in transfected cells; host or cells: HTLA cells
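For Fold of Basal in this document: compound tested at 1 µM final concentration.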
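For GPCRome agonism screen response in this document: fold over basal response of each receptor without drug.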

T1 sequence (O00398 whole entry): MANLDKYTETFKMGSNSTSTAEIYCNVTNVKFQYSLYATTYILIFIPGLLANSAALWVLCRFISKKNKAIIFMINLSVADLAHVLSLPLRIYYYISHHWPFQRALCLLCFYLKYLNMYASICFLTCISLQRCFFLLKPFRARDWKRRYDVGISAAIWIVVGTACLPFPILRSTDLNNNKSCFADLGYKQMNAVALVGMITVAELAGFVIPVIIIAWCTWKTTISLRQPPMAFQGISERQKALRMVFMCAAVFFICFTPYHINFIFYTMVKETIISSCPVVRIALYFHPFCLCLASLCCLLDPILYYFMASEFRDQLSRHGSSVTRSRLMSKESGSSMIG
T2 sequence (P48145 whole entry): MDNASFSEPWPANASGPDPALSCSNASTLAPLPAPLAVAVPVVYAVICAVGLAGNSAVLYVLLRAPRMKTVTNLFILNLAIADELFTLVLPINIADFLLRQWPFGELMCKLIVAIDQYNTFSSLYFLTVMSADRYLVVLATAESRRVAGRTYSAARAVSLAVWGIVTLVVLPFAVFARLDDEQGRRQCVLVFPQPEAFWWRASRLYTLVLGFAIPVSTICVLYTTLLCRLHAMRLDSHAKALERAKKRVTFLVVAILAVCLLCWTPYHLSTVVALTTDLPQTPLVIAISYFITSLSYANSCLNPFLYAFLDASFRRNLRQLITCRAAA
320 non-olfactory GPCRs (Homo sapiens, UniProt P43220), sequence (P43220 24-463): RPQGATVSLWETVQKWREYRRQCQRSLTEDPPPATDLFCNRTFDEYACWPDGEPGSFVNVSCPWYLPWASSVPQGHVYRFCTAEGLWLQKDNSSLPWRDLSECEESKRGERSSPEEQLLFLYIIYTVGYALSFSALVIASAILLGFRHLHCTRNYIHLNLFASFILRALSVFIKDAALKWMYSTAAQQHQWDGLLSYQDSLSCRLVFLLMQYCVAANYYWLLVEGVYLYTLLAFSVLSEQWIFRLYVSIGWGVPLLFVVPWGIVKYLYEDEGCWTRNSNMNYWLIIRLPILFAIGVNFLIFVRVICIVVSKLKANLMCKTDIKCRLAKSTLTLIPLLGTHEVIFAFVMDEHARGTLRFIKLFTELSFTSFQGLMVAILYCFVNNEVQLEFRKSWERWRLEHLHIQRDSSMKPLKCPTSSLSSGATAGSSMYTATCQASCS
T3 sequence (Q9Y5X5 whole entry): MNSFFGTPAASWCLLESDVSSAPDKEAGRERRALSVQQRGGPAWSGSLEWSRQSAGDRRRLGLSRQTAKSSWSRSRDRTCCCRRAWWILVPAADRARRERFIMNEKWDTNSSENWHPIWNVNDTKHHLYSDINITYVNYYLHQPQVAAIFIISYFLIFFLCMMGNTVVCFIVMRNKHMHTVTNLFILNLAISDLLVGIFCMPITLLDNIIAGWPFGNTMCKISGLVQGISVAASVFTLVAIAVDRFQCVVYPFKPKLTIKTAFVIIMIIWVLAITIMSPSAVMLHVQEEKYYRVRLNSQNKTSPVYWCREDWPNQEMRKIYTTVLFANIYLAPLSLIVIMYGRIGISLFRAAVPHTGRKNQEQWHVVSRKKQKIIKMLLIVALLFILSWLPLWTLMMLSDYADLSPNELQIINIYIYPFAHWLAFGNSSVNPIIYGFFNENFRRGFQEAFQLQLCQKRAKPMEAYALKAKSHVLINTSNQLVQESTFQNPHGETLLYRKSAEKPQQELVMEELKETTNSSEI

Structure (SMILES): CCOc1cccc2cc(C(C)NCC3(O)CCCCC3)oc12 (stereo not shown) [O4LE6]
- GPCRome agonism screen response (320 non-olfactory GPCRs [1]): 0.6744 and 0.6284 and 0.7052 and 0.972
- Fold of Basal (320 non-olfactory GPCRs [2]): 0.6919 and 1.003 and 1.157 and 1.2674
- GPCRome agonism screen response (320 non-olfactory GPCRs [3]): 1.094 and 1.2601 and 1.077 and 0.8815
- GPCRome agonism screen response (320 non-olfactory GPCRs [4]): 1.684 and 1.1 and 0.9323 and 0.6942
